Experimental data published in patent US12643871B2, “Aryl formamide compound containing chiral sulfur oxide or salt thereof, preparation method, herbicidal composition and use thereof” (Qingdao Kingagroot Chemical Compound Co., Ltd., priority 2019, dated 2026).

Legend:
Experiment in all cases: Weeding effect in post-emergence stage
Assay type in all cases: in vivo
Conditions in all cases: 250 g/ha; 2 leaf stage; 15 days after application; fresh weight control rate
Abutilon theophrasti = tested on: Abutilon theophrasti
Outline: (§1)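 Post-emergence spray, 2-leaf stage; doses 500–15 g/ha; acetone + Tween 80 + methyl oleate EC (1.5 L/ha) as synergist. Greenhouse 15 d. Readout: fresh weight control rate graded levels 0–5 (5 = above 85%, 0 = below 5%); triplicate means.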

Amaranthus retroflexus = tested on: Amaranthus retroflexus
Outline: as §1

Digitaria sanguinalis = tested on: Digitaria sanguinalis
Outline: as §1

Echinochloa crusgali = tested on: Echinochloa crusgali
Outline: as §1

Setaria viridis = tested on: Setaria viridis
Outline: as §1

SMILES	weeding effect in post-emergence stage, activity level (growth control rate), Abutilon theophrasti (Abutilon theophrasti)	weeding effect in post-emergence stage, activity level (growth control rate), Amaranthus retroflexus (Amaranthus retroflexus)	weeding effect in post-emergence stage, activity level (growth control rate), Digitaria sanguinalis (Digitaria sanguinalis)	weeding effect in post-emergence stage, activity level (growth control rate), Echinochloa crusgali (Echinochloa crusgali)	weeding effect in post-emergence stage, activity level (growth control rate), Setaria viridis (Setaria viridis)
CCC(C)[S@@+]([O-])c1c(C(F)(F)F)ccc(C(=O)Nc2nnc(C)o2)c1F (some centres unmarked) [Compound 5]	5 (Level 5: growth control rate is above 85%)	5 (Level 5: growth control rate is above 85%)	5 (Level 5: growth control rate is above 85%)	5 (Level 5: growth control rate is above 85%)	5 (Level 5: growth control rate is above 85%)
CSc1c(C(=O)Nc2nnc(C)o2)ccc(C(F)(F)F)c1[S@+]([O-])CCC(F)(F)F [Compound 560]	5 (Level 5: growth control rate is above 85%)	5 (Level 5: growth control rate is above 85%)	5 (Level 5: growth control rate is above 85%)	5 (Level 5: growth control rate is above 85%)	5 (Level 5: growth control rate is above 85%)
Cc1nnc(NC(=O)c2ccc(C(F)(F)F)c([S@+]([O-])CCC(F)(C(F)(F)F)C(F)(F)F)c2F)o1 [Compound 36]	5 (Level 5: growth control rate is above 85%)	5 (Level 5: growth control rate is above 85%)	5 (Level 5: growth control rate is above 85%)	5 (Level 5: growth control rate is above 85%)	5 (Level 5: growth control rate is above 85%)
COc1c(C(=O)Nc2nnc(C)o2)ccc(C(F)(F)F)c1[S@+]([O-])CC(C)O (some centres unmarked) [Compound 336]	5 (Level 5: growth control rate is above 85%)	5 (Level 5: growth control rate is above 85%)	5 (Level 5: growth control rate is above 85%)	5 (Level 5: growth control rate is above 85%)	5 (Level 5: growth control rate is above 85%)
COc1c(C(=O)Nc2nnc(C)o2)ccc(C(F)(F)F)c1[S@@+]([O-])C(F)F [Compound 322]	5 (Level 5: growth control rate is above 85%)	5 (Level 5: growth control rate is above 85%)	5 (Level 5: growth control rate is above 85%)	5 (Level 5: growth control rate is above 85%)	5 (Level 5: growth control rate is above 85%)
Cc1nnc(NC(=O)c2ccc(C(F)(F)F)c([S@+]([O-])CCCC(F)(F)F)c2F)o1 [Compound 34]	5 (Level 5: growth control rate is above 85%)	5 (Level 5: growth control rate is above 85%)	5 (Level 5: growth control rate is above 85%)	5 (Level 5: growth control rate is above 85%)	5 (Level 5: growth control rate is above 85%)
COc1c(C(=O)Nc2nnc(C)o2)ccc(C(F)(F)F)c1[S@+]([O-])CCCN [Compound 339]	5 (Level 5: growth control rate is above 85%)	5 (Level 5: growth control rate is above 85%)	5 (Level 5: growth control rate is above 85%)	5 (Level 5: growth control rate is above 85%)	5 (Level 5: growth control rate is above 85%)
CCC[S@@+]([O-])c1c(C(F)(F)F)ccc(C(=O)Nc2nnco2)c1F [Compound 357]	5 (Level 5: growth control rate is above 85%)	5 (Level 5: growth control rate is above 85%)	5 (Level 5: growth control rate is above 85%)	5 (Level 5: growth control rate is above 85%)	5 (Level 5: growth control rate is above 85%)
CSc1c(C(=O)Nc2nnc(C)o2)ccc(C(F)(F)F)c1[S@+]([O-])CCCCl [Compound 563]	5 (Level 5: growth control rate is above 85%)	5 (Level 5: growth control rate is above 85%)	5 (Level 5: growth control rate is above 85%)	5 (Level 5: growth control rate is above 85%)	5 (Level 5: growth control rate is above 85%)
COc1c(C(=O)Nc2nnc(C)o2)ccc(C(F)(F)F)c1[S@+]([O-])CC#N [Compound 337]	5 (Level 5: growth control rate is above 85%)	5 (Level 5: growth control rate is above 85%)	5 (Level 5: growth control rate is above 85%)	5 (Level 5: growth control rate is above 85%)	5 (Level 5: growth control rate is above 85%)
COCCC[S@@+]([O-])c1c(C(F)(F)F)ccc(C(=O)Nc2nnc(C)o2)c1F [Compound 75]	5 (Level 5: growth control rate is above 85%)	5 (Level 5: growth control rate is above 85%)	5 (Level 5: growth control rate is above 85%)	5 (Level 5: growth control rate is above 85%)	5 (Level 5: growth control rate is above 85%)
CCCC[S@@+]([O-])c1c(C(F)(F)F)ccc(C(=O)Nc2nnco2)c1F [Compound 575]	5 (Level 5: growth control rate is above 85%)	5 (Level 5: growth control rate is above 85%)	5 (Level 5: growth control rate is above 85%)	5 (Level 5: growth control rate is above 85%)	5 (Level 5: growth control rate is above 85%)
Cc1nnc(NC(=O)c2ccc(C(F)(F)F)c([S@+]([O-])CC(C)Cl)c2F)o1 (some centres unmarked) [Compound 38]	5 (Level 5: growth control rate is above 85%)	5 (Level 5: growth control rate is above 85%)	5 (Level 5: growth control rate is above 85%)	5 (Level 5: growth control rate is above 85%)	5 (Level 5: growth control rate is above 85%)
Cc1nnc(NC(=O)c2ccc(C(F)(F)F)c([S@+]([O-])CCCO)c2F)o1 [Compound 55]	5 (Level 5: growth control rate is above 85%)	5 (Level 5: growth control rate is above 85%)	5 (Level 5: growth control rate is above 85%)	5 (Level 5: growth control rate is above 85%)	5 (Level 5: growth control rate is above 85%)
COc1c(C(=O)Nc2nnc(C)o2)ccc(C(F)(F)F)c1[S@+]([O-])CCCl [Compound 332]	5 (Level 5: growth control rate is above 85%)	5 (Level 5: growth control rate is above 85%)	5 (Level 5: growth control rate is above 85%)	5 (Level 5: growth control rate is above 85%)	5 (Level 5: growth control rate is above 85%)
CCCSc1c(C(=O)Nc2nnc(C)o2)ccc(C(F)(F)F)c1[S@+]([O-])CCC [Compound 570]	5 (Level 5: growth control rate is above 85%)	5 (Level 5: growth control rate is above 85%)	5 (Level 5: growth control rate is above 85%)	5 (Level 5: growth control rate is above 85%)	5 (Level 5: growth control rate is above 85%)
